Laboratory results taken from ChEMBL document CHEMBL4706603, “Discovery of VEGFR-2 inhibitors exerting significant anticancer activity against CD44+ and CD133+ cancer stem cells (CSCs): Reversal of TGF-β induced epithelial-mesenchymal transition (EMT) in hepatocellular carcinoma” (Eur J Med Chem, 2020).
Activity calls are given as the source filed them. No cut-off for these calls is given here.

Legend:
HepG2 [1] = assay: Antimigratory activity against human HepG2 cells assessed as reduction in cell migration at IC50 incubated for 24 hrs by transwell migration assay; type: functional, cell-based
[2] = Toxicity in Wistar rat assessed as normal ovary with primary to tertiary developing follicles and mature follicles at 2000 mg/kg, po and measured on day 15 by microscopic analysis; type: organism-based; conditions: in vivo, 360 h, time 15 day
HepG2 [3] = assay: Induction of ROS production in human HepG2 cells at IC50 incubated for 3 hrs by fluorescence microscopic analysis; type: functional, cell-based

CC(=O)Nc1ccc(Oc2cccc3c(NC(=O)Nc4cccc(C(F)(F)F)c4)cccc23)cc1
Activity (HepG2 [1]): Active
Activity [2]: Non-Toxic
Activity (HepG2 [3]): Active
